Measurements published in patent US6770644B1, “Hydroxamic acid derivatives, process for the production thereof and drug containing the same as the active ingredient” (Ono Pharmaceuticals Co., Ltd., priority 1999, dated 2004).

Legend:
[1] = tested on: IL-6 production from A549 cells; assay: Inhibitory activity on IL-6 production from A549 cells (TNF-α stimulated, ELISA); type: cell-based; conditions: A549 cells (human lung epithelial cell line), TNF-α stimulation, 24 hours, read-out: 50% inhibitory concentration (IC50) on IL-6 production
Description: (1) The Measurement of an Inhibitory Activity on IL-6 Production from A549 Cells
1.5×10^4 of A549 cells (human lung epithelial cell line) were suspended in 100 μL of Dulbecco's Modified Eagle Medium (DMEM) containing 0.5% fetal bovine serum (abbreviated as FBS) and incubated for a day and night in 96 well-microplate. 20 μL of the test compound dissolved in dimethylsulfoxide (DMSO) at various concentrations and 80 μL of tumor necrosis factor-α (TNF-α (Genzyme Co., cat. No. TNF-H)) dissolved in serum-free DMEM at the concentration of 12.5 ng/mL were added thereto. After the incubation for 24 hours, the supernatant (100 μL) was collected to measure the amount of IL-6 being produced using enzyme linked immuno […] assay (ELISA) (R&D Systems Co., cat. No. D6050). Then the inhibitory activity of the test compound was calculated and the 50% inhibitory concentration (IC50) was determined.

[2] = tested on: IL-6 production from human synovial cells; assay: Inhibitory activity on IL-6 production from human synovial cells (IL-1β stimulated, ELISA); type: cell-based; conditions: Synovial cell, synovial cells from rheumatoid arthritis patients, IL-1β stimulation, 24 hours, read-out: 50% inhibitory concentration (IC50) on IL-6 production
Description: (2) The Measurement of an Inhibitory Activity on IL-6 Production from Human Synovial Cells
3.0×10^3 of synovial cells from rheumatoid arthritis patients were suspended in 200 μL of DMEM containing 10% FBS and incubated for a day and night in 96 well-microplate, followed by the incubation for 5 hours in serum-free DMEM. 20 μL of the test compound dissolved in DMSO at various concentrations and 80 μL of interleukin-1β (IL-1β (Genzyme Co., cat. No. 80-3688-01)) dissolved in DMEM containing 2.5% fetal bovine serum at the concentration of 5 ng/mL were added thereto. After the incubation for 24 hours, the supernatant (100 μL) was collected to measure the amount of IL-6 being produced using ELISA (R&D Systems Co., cat. No. D6050). Then the inhibitory activity of the test compound was calculated and the 50% inhibitory concentration (IC50) was determined.

IC50 [1]: 52 nM
IC50 [2]: 41 nM
SMILES: O=C(CCCC[C@@H](O)c1ccc(-c2ccc(Cl)cc2)cc1)NO [example 3]
